Assay results reported in PubChem BioAssay (NCI).
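How tested: cells in 96-well plates exposed to compound for 48 hours at five concentrations. Definition used: TGI = concentration required for complete inhibition of growth.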

Key:
Experiment in all cases: inhibition of tumour cell growth, NCI panel, 48 h
MCF7 breast = system: MCF7 breast
SW-620 colon = system: SW-620 colon
SK-MEL-2 melanoma = system: SK-MEL-2 melanoma
NCI-H460 lung = system: NCI-H460 lung
T-47D breast = system: T-47D breast
OVCAR-5 ovarian = system: OVCAR-5 ovarian

| SMILES | TGI (MCF7 breast) [µM] | TGI (SW-620 colon) [µM] | TGI (SK-MEL-2 melanoma) [µM] | TGI (NCI-H460 lung) [µM] | TGI (T-47D breast) [µM] | TGI (OVCAR-5 ovarian) [µM] |
| --- | --- | --- | --- | --- | --- | --- |
| CC1(C)OC(=O)N(c2ccccc2)C12C=Cc1cccc([N+](=O)[O-])c1O2 (stereo not drawn) | > 100 | > 100 | > 100 | > 100 | 94.9 | > 100 |
| CC(=O)OCC1OC(Nn2c(=O)[nH]c3ccccc3c2=O)C(OC(C)=O)C(OC(C)=O)C1OC(C)=O (stereo not drawn) | > 100 | > 100 | > 100 | > 100 | > 100 | > 100 |
| NC(=O)Cc1nc2c(N)ncnc2n1C1OC(CO)C(O)C1O (stereo not drawn) | > 100 | > 100 | > 100 | > 100 | > 100 |  |
| CC(=O)OCC1OC(n2c(-c3ccccc3)c(C(C)=O)c(-c3cccc4ccccc34)c(C#N)c2=S)C(OC(C)=O)C(OC(C)=O)C1OC(C)=O (stereo not drawn) | > 100 | > 100 | > 100 | > 100 | > 100 | > 100 |
| COc1cc(/C=N/n2c(-c3ccccc3)nn(C(C)=O)c2=O)cc(OC)c1OC | > 37.9 | > 100 | 18.4 | > 39.2 | > 100 | > 92.6 |
| COC(=O)C(Cc1c[nH]c2ccccc12)NC(=O)c1ccc(-c2ccc(Cl)cc2Cl)o1 (stereo not drawn) | > 100 | > 100 | > 100 | > 100 | > 100 | > 100 |
| CC(=O)Nc1c(C)cc2c(nc3n2CCC3OC(C)=O)c1[N+](=O)[O-] (stereo not drawn) | > 100 | > 100 | > 100 | > 100 | > 100 | > 100 |
| COc1ccc(N2C(=O)C3c4[nH]c5ccc(Br)cc5c4C4CCC(C(C)(C)C)CC4C3C2=O)cc1 (stereo not drawn) | > 100 | > 100 | > 100 | > 100 |  | > 100 |
| O=C(CN1CCOCC1)c1ccc2c(c1)oc(=O)n2CCN1CCOCC1 | > 100 | > 100 | > 100 |  |  | > 100 |
| Cc1ccc(S(=O)(=O)Oc2nc3ccccc3nc2OS(=O)(=O)c2ccc(C)cc2)cc1 | > 100 | > 100 | > 100 | > 100 |  | > 100 |
| Cc1ccc(/C(O)=C/C(=O)C(=O)NC23CC4CC(CC(C4)C2)C3)cc1 | > 10 | > 10 |  |  | > 10 |  |
| CCOC(=O)C1(C(=O)OCC)OC(C)=NC1(C(=O)OC)C(=O)OC | > 100 | > 100 | > 100 | > 100 | > 100 | > 100 |
| Cc1ccc(O)c(C2=CC(c3cccc(Cl)c3)SC(N)=N2)c1 (stereo not drawn) | > 100 | 65.9 | 38.2 | 64 | 99.2 | 73.5 |
| COC1CC(COCc2ccccc2)CC(OC)O1 (stereo not drawn) | > 100 | > 100 |  | > 100 | > 100 | > 100 |
| CCOC(=O)c1cc2/c(=C\c3ccc(N(C)C)cc3)c3ccccc3n2[n+]1C | 27.9 | 13.1 | 4.74 | 12.6 | 24.6 | 20.4 |
| CCCCCCCCCCCCCCCCCCNC(=S)/N=C\C1=C(O)c2ccccc2C1=O | 29.5 | 25.3 |  | 26.2 | 37.2 | 26.9 |
| CCOC(=O)C1=NN(c2ccc([N+](=O)[O-])cc2)[C@@]2(C)C[C@]3(c4ccccc4)N(c4ccc([N+](=O)[O-])cc4)N=C(C(=O)OCC)N3c3ccccc3N12 | > 100 | > 100 | > 100 |  | > 100 | > 100 |
| N#Cc1c(-c2ccc(Cl)cc2)[nH]c(=O)n(C2OC(CO)C(O)C(O)C2O)c1=O (stereo not drawn) | > 100 | > 100 | > 100 | > 100 | > 100 | > 100 |
| O=c1[nH]nc(Cc2c[nH]c3ccccc23)o1 | > 100 | > 100 | > 100 |  | > 100 | > 100 |
| CC(C)=CCC/C(C)=C/CC/C(C)=C/CC/C(C)=C/CC/C(C)=C/CC/C(C)=C/CC/C(C)=C/CC/C(C)=C/CC/C(C)=C/CO | > 100 | > 100 | > 100 | > 100 | > 100 | > 100 |

| SMILES | TGI (MCF7 breast) [µM] | TGI (SW-620 colon) [µM] | TGI (SK-MEL-2 melanoma) [µM] | TGI (NCI-H460 lung) [µM] | TGI (T-47D breast) [µM] | TGI (OVCAR-5 ovarian) [µM] |
| --- | --- | --- | --- | --- | --- | --- |
| CC1(C)Cc2nc3c(cc2C(=O)C1C=N/C(C#N)=C(\N)C#N)C(=O)C(C=N/C(C#N)=C(\N)C#N)C(C)(C)C3 (stereo not drawn) | 6.23 | > 20.5 | 4.69 | 8.21 | 4.3 | 5.48 |
| CCC(=O)Nc1ccc(NC(C#N)c2cccc(Oc3ccccc3)c2)cc1 (stereo not drawn) | > 100 | > 100 | 94.6 |  | > 100 | > 100 |
| OC(c1ccc(C(F)(F)F)cc1)C(F)(F)c1nc2ccccc2o1 (stereo not drawn) | > 100 | > 100 | > 100 | > 100 | > 100 |  |
| COc1ccc(C2SCC(=O)N2NC(=O)c2ccc(NC(C)=O)cc2)c(OC)c1 (stereo not drawn) | > 100 | > 100 | > 100 | > 100 | > 100 | > 100 |
| C/C(CC(O)(/C=N/O)c1ccccc1)=N/O (stereo not drawn) | > 100 | > 100 | > 100 | > 100 | > 100 | > 100 |
| Cn1c(=O)c2c(nc3n2CCCC(=O)N3CC(O)CCl)n(C)c1=O (stereo not drawn) | > 100 | > 100 | > 100 | > 100 | > 100 | > 100 |
| O=C1C2=C(CC3=C(C2)CS(=O)(=O)C3)C(=O)C2=C1CC1=C(C2)CS(=O)(=O)C1 | 35.1 | 47.1 | > 75.2 | > 100 | 8.66 | > 78.3 |
| CCOC(=O)C1=CCOc2cc(N(C)C)ccc21 | > 100 | > 100 | > 100 | > 100 |  |  |
| COC(O)C(=O)c1ccc2c(c1)CC1(C2)Cc2cc3c(cc2C1=O)CCC3 (stereo not drawn) | 39.6 | 30.3 | 47.1 | 70.6 | 48.1 | 52.3 |
| O=C(Nc1ccc2[nH]c(C(=O)N3CC(CCl)c4c3cc([N+](=O)[O-])c3ccccc43)cc2c1)Nc1ccc2[nH]c(C(=O)N3CC(CCl)c4c3cc([N+](=O)[O-])c3ccccc43)cc2c1 (stereo not drawn) | > 100 |  | > 100 | > 100 | > 100 | > 100 |
| O=c1ccn(COC(COCc2ccccc2)COCc2ccccc2)c(=O)[nH]1 | > 100 | > 100 | > 100 | > 100 | > 100 | > 100 |
| CCOc1ccc(N/C(=C(/C(Cl)=C(/Cl)N2CCCCC2)[N+](=O)[O-])n2nnc3ccccc32)cc1 | 39.4 |  | 33.3 | 70.4 | 49.6 | 32.5 |
| CN(C)CCn1c(=O)c2ccc(NCCN3CCNCC3)c3c(=O)c4ccccc4n(c1=O)c23 | 12.7 | 21.3 | 8.72 | 12 | 28.9 | 42.1 |
| O=[N+]([O-])C(=C(N1CCOCC1)N1CCOCC1)/C(Cl)=C(\Cl)Br |  | 28.8 | 44.8 | > 100 | 32.1 | 32.4 |
| NCCCC[C@H](N)C(=O)Nc1ccc(-c2nc3ccccc3s2)cc1 |  | 30.6 | > 100 | 34.9 | > 100 | 33.2 |
| CC(C)NC(=O)N(Nc1ccccc1)C(C)(C)C | > 100 | > 100 | > 100 | > 100 |  | > 100 |
| O=C1CSC(c2ccccc2[N+](=O)[O-])N1c1ccc(-c2ccc(-n3c(-c4ccccc4)nc4ccccc4c3=O)cc2)cc1 (stereo not drawn) | > 100 | > 100 | > 100 | > 100 | > 100 | > 100 |
| CC(C)C(=O)Nc1cc(C(F)(F)F)ccc1[N+](=O)[O-] | > 100 | > 100 | > 100 | > 100 | > 100 | > 100 |
| COc1ccccc1C1ON=C(c2ccc([N+](=O)[O-])cc2)N1C12CC3CC(CC(C3)C1)C2 (stereo not drawn) | > 100 | > 100 | > 100 | > 100 | > 100 | > 100 |
| CC1=C(c2ccccc2)NC(=S)C(C)C(c2ccccc2)=N1 (stereo not drawn) | > 100 | > 100 |  | > 100 | > 100 | > 100 |

| SMILES | TGI (MCF7 breast) [µM] | TGI (SW-620 colon) [µM] | TGI (SK-MEL-2 melanoma) [µM] | TGI (NCI-H460 lung) [µM] | TGI (T-47D breast) [µM] | TGI (OVCAR-5 ovarian) [µM] |
| --- | --- | --- | --- | --- | --- | --- |
| Nc1nc2ncc(CNc3ccc(C(=O)NC(CCC(=O)O)C(=O)O)cc3)nc2c(=O)[nH]1 (stereo not drawn) | > 100 | > 100 | > 100 | > 100 |  | > 100 |
| S=C1CCSc2c(ccc3ccccc23)N1 | > 100 |  |  | > 100 | > 100 | > 100 |
| COC(=O)c1cc(C(=CCC[C@H]2CC[C@@]3(C)C(CCC4C3CC[C@@]3(C)C4CC[C@@H]3C(C)CCCC(C)C)C2)c2cc(Cl)c(O)c(C(=O)OC)c2)cc(Cl)c1O (stereo partly drawn) | > 10 | > 10 | > 10 | > 10 | > 10 | > 10 |
| NC(=O)NCCCC(NC(=O)OCCCCCCn1ccc(=O)[nH]c1=O)C(=O)O (stereo not drawn) | > 100 | > 100 | > 100 | > 100 | > 100 | > 100 |
| CC(C)O/N=C/c1cc(NC(=S)OC(C)C)ccc1Cl | > 68.8 | > 72.6 | > 61.7 | > 100 | > 100 | > 86.1 |
| C=C(CCC/C(C)=C/C=C/[C@@H](C)CCCc1ccoc1)C[C@@H]1OC(=O)[C@H](C)[C@@H]1O | 25.2 | 23.7 | 17.7 | 29.8 | 26.2 | > 50 |
| Cc1c2c(c(O)c3c(O)cccc13)C(=O)C1(O)C(O)=C(C(=O)NCNc3ccc(C(N)=O)cn3)C(=O)C(N(C)C)C1C2 (stereo not drawn) | > 100 | 42 | 34.1 |  | > 100 | 34.2 |
| O=C1C(=O)N(c2cccc(C(F)(F)F)c2)C(=S)N1c1ccccc1 |  | > 100 | 40.5 | 6.49 | > 100 | 80.5 |
| CC(C)[C@H](NC(=O)[C@H](N)Cc1ccc(N(CCCl)CCCl)cc1)C(=O)O | > 100 | > 100 | > 100 | > 100 | > 100 | > 100 |
| CN(/N=C/c1cccc2cccnc12)c1ccc(Cl)cc1[N+](=O)[O-] | > 100 | > 100 | > 100 | > 100 |  | > 100 |
| COc1ccc(Cc2nnc(Nc3ccc(Br)cc3)[nH]c2=O)cc1OC | > 100 | > 100 | > 100 | > 100 | > 100 | > 100 |
| CN1C(=O)C2(C=CC(O)CC2)c2ccccc21 (stereo not drawn) | > 100 | > 100 | > 100 | > 100 | > 100 | > 100 |
| CC[C@@]1(C)CCC2c3ccc(O)cc3CC[C@H]2C1C (stereo partly drawn) | 30.3 | 32.4 | 32.8 | 40.6 | 39.3 | 33.3 |
| CC(=O)Nc1ccc2c3c(cc(O)c2c1)N(C(=O)CCCCCCC(=O)N1CC(CCl)c2c1cc(O)c1cc(NC(C)=O)ccc21)CC3CCl (stereo not drawn) | 0.0472 | > 100 | < 0.01 |  | < 0.01 | 0.243 |
| CS(=O)(=O)c1ccc(N=C/C=C/Nc2ccc(S(C)(=O)=O)cc2)cc1 | > 100 | > 100 | > 100 | > 100 | > 100 | > 100 |
| CCOC(=O)C1c2[nH]c3ccccc3c2CCN1C(=O)c1ccc(OC)o1 (stereo not drawn) | > 10 | > 10 | > 10 | > 10 | > 10 | > 10 |
| Cc1cc(Cc2cc(C)c(NC(=O)C(=O)C3CCC4=C(SC5C=CC=CC5N4)C3=O)c(C(C)C)c2)cc(C(C)C)c1NC(=O)C(=O)C1CCC2=C(SC3C=CC=CC3N2)C1=O (stereo not drawn) | > 100 | > 100 | > 100 | > 100 | > 100 | > 100 |
| C=CCN(C(=O)OC(C)(C)C)[C@H](C)C(=O)N[C@@H](C)C(=O)OC | > 100 | > 100 | > 100 |  | > 100 | > 100 |
